Experimental data published in patent US20170290852A1, “MICELLE FORMULATIONS OF AMPHOTERICIN B” (Wisconsin Alumni Research Foundation, priority 2016, published 2017).
Converted amounts (≈) assume the structure as drawn.

Tests used:
bovine red blood cells = conditions: 5-FC alone, 25-100 μg/ml
C. albicans strain K1 = assay: Minimum inhibitory concentration (MIC); format: cell-based; conditions: K1 (Example 6); for 5-FC the concentration inhibiting ≧50% by absorbance
Method: (§1) To prepare the inoculation, the fungal strains were cultured for approximately 24 hours on Sabouraud dextrose agar (SDA) plates were diluted to a 0.5 McFarland standard (1-5×10^6 CFU/mL) in sterile normal saline and diluted 100-fold in yeast peptone dextrose (YPD). Inoculum was added to serial dilutions of AmB in 96-well plates, following the microplate dilution method. Plates were sealed with Breathe Easier membranes (Sigma Aldrich, St. Louis, Mo.). ATCC 9763 or K1 was incubated at 30° C. or 37° C., respectively, for 18-20 hours. […] SDA was prepared with 1% peptone, 4% glucose, and 1.5% agar in deionized water. YPD media was prepared with 1% yeast extract, 2% peptone, and 2% glucose in deionized water. Autoclaving was used to sterilize media.
(§2) For 5-FC, the concentration necessary to inhibit ≧50% as determined by absorbance is reported.

[1] = test system: C. albicans Gu5 (ATCC MYA-574); assay: Minimum inhibitory concentration (MIC); format: cell-based; conditions: for 5-FC the concentration inhibiting ≧50% by absorbance
Method: as §1, §2

[2] = test system: C. albicans SC5314 (ATCC MYA-2876); assay: Minimum inhibitory concentration (MIC); format: cell-based; conditions: for 5-FC the concentration inhibiting ≧50% by absorbance
Method: as §1, §2

K1 = assay: Neutropenic mouse model of disseminated candidiasis; format: in vivo, ICR/Swiss mice; conditions: 48 hours; 72 mg/kg 5-FC
Method: The activity of each drug, alone and in combination, was evaluated in a neutropenic mouse model of disseminated candidiasis as described previously by D. Andes, et al., “Pharmacodynamics of amphotericin B in a neutropenic-mouse disseminated-candidiasis model,” Antimicrobial Agents and Chemotherapy, 45(3), 922-6 (2001).
For each treatment group, three six-week-old ICR/Swiss specific-pathogen-free female mice (Harlan Sprague Dawley, Madison, Wis.) were rendered neutropenic by multiple doses of cyclophosphamide. Animals were classified as neutropenic when polymorphonuclear leukocyte counts dropped below 100/mm^3. Infection was established by injecting 100 μL inoculum into the lateral tail vein. The inoculum was prepared by subculturing K1 on SDA plates for 24 hours at 35° C. Six colonies were dispersed into 5 mL of sterile pyrogen-free normal saline warmed to 35° C. and injected two hours prior to drug treatment. Antifungals (200 μL) were dosed intraperitoneally on the day of infection and 24 hours after the initial dose. […] The animals were euthanized by CO2 asphyxiation 48 hours after the initial drug treatment. […] After 24 hours of incubation at 35° C., colonies were counted. Results were expressed as the mean and standard deviation of the difference in viable fungal counts between the control group at zero hour (two hours post-infection) and each group at the 48 hour timepoint. […]

SMILES: Nc1nc(=O)[nH]cc1F [5-FC, 5-fluorocytosine]
- hemolytic activity (bovine red blood cells): < 0.4%
- MIC (C. albicans strain K1): 64 µg/mL (≈ 496 µM)
- MIC [1]: 81 µg/mL (≈ 627 µM)
- MIC [2]: 20 µg/mL (≈ 155 µM)
- fungal burden of the control group relative to treated group (K1): 1.2 times
